Assay: xn = mol fraction of the nth substance listed
Conditions: 101 kPa, Liquid, Vibrating tube method

CCCC(=O)OCC [ethyl butanoate] + CCCCCCCCC
Conditions | mass density [kg/m3]
288.15 K, x1 = 0.0379 | 725.8
288.15 K, x1 = 0.1046 | 733.19
288.15 K, x1 = 0.1502 | 738.59
288.15 K, x1 = 0.2013 | 744.84
288.15 K, x1 = 0.2499 | 751.04
288.15 K, x1 = 0.3047 | 758.28
288.15 K, x1 = 0.3427 | 763.5
288.15 K, x1 = 0.3961 | 771.2
288.15 K, x1 = 0.4355 | 776.9
288.15 K, x1 = 0.4957 | 786.1
288.15 K, x1 = 0.5455 | 794.1
288.15 K, x1 = 0.5857 | 800.8
288.15 K, x1 = 0.6498 | 811.8
288.15 K, x1 = 0.7067 | 822.09
288.15 K, x1 = 0.752 | 830.65
288.15 K, x1 = 0.8019 | 840.45
288.15 K, x1 = 0.8502 | 850.42
288.15 K, x1 = 0.904 | 861.91
288.15 K, x1 = 0.9569 | 873.91
288.15 K, x1 = 1 | 884.01
298.15 K, x1 = 0.0486 | 719.05
298.15 K, x1 = 0.0906 | 723.69
298.15 K, x1 = 0.1007 | 724.84
298.15 K, x1 = 0.1495 | 730.49
298.15 K, x1 = 0.2442 | 742.05
298.15 K, x1 = 0.2985 | 749.08
298.15 K, x1 = 0.3131 | 750.97
298.15 K, x1 = 0.3518 | 756.23
298.15 K, x1 = 0.4357 | 768.18
298.15 K, x1 = 0.5028 | 778.32
298.15 K, x1 = 0.5511 | 785.92
298.15 K, x1 = 0.5974 | 793.57
298.15 K, x1 = 0.703 | 811.93
298.15 K, x1 = 0.746 | 819.92
298.15 K, x1 = 0.7879 | 827.92
298.15 K, x1 = 0.8532 | 841.01
298.15 K, x1 = 0.9053 | 852.07
298.15 K, x1 = 1 | 873.5
308.15 K, x1 = 0.0505 | 711.25
308.15 K, x1 = 0.0818 | 714.63
308.15 K, x1 = 0.1528 | 722.65
308.15 K, x1 = 0.1872 | 726.67
308.15 K, x1 = 0.2112 | 729.53
308.15 K, x1 = 0.2818 | 738.36
308.15 K, x1 = 0.3302 | 744.66
308.15 K, x1 = 0.3685 | 749.81
308.15 K, x1 = 0.426 | 757.85
308.15 K, x1 = 0.4773 | 765.37
308.15 K, x1 = 0.5187 | 771.59
308.15 K, x1 = 0.5712 | 779.88
308.15 K, x1 = 0.642 | 791.55
308.15 K, x1 = 0.6753 | 797.37
308.15 K, x1 = 0.726 | 806.38
308.15 K, x1 = 0.7822 | 816.86
308.15 K, x1 = 0.833 | 826.88
308.15 K, x1 = 0.878 | 836.1
308.15 K, x1 = 0.9384 | 848.96
308.15 K, x1 = 1 | 862.85
318.15 K, x1 = 0.0435 | 702.45
318.15 K, x1 = 0.1009 | 708.56
318.15 K, x1 = 0.1439 | 713.46
318.15 K, x1 = 0.2001 | 719.85
318.15 K, x1 = 0.2489 | 725.77
318.15 K, x1 = 0.2861 | 730.43
318.15 K, x1 = 0.355 | 739.26
318.15 K, x1 = 0.402 | 745.62
318.15 K, x1 = 0.4556 | 753.18
318.15 K, x1 = 0.4988 | 759.53
318.15 K, x1 = 0.547 | 766.88
318.15 K, x1 = 0.6011 | 775.45
318.15 K, x1 = 0.656 | 784.53
318.15 K, x1 = 0.6951 | 791.27
318.15 K, x1 = 0.7543 | 801.83
318.15 K, x1 = 0.7999 | 810.52
318.15 K, x1 = 0.8485 | 819.97
318.15 K, x1 = 0.8947 | 829.27
318.15 K, x1 = 0.9545 | 842.03
318.15 K, x1 = 1 | 852.26
328.15 K, x1 = 0.0481 | 695.05
328.15 K, x1 = 0.1134 | 701.93
328.15 K, x1 = 0.1627 | 707.35
328.15 K, x1 = 0.2102 | 712.81
328.15 K, x1 = 0.2589 | 718.53
328.15 K, x1 = 0.3111 | 725
328.15 K, x1 = 0.3588 | 731.17
328.15 K, x1 = 0.402 | 736.91
328.15 K, x1 = 0.4562 | 744.36
328.15 K, x1 = 0.5565 | 759.06
328.15 K, x1 = 0.5996 | 765.77
328.15 K, x1 = 0.6524 | 774.29
328.15 K, x1 = 0.7062 | 783.42
328.15 K, x1 = 0.7544 | 791.91
328.15 K, x1 = 0.806 | 801.44
328.15 K, x1 = 0.8433 | 808.67
328.15 K, x1 = 0.8917 | 818.28
328.15 K, x1 = 0.9532 | 831.23
328.15 K, x1 = 1 | 841.55

CCCC(=O)OC [methyl butanoate] + CCCCCCC
Conditions | mass density [kg/m3]
288.15 K, x1 = 0.0478 | 695.54
288.15 K, x1 = 0.094 | 702.79
288.15 K, x1 = 0.1411 | 710.56
288.15 K, x1 = 0.2025 | 720.91
288.15 K, x1 = 0.2476 | 728.91
288.15 K, x1 = 0.2996 | 738.37
288.15 K, x1 = 0.3531 | 748.53
288.15 K, x1 = 0.4112 | 759.9
288.15 K, x1 = 0.4484 | 767.46
288.15 K, x1 = 0.5023 | 778.63
288.15 K, x1 = 0.5526 | 789.52
288.15 K, x1 = 0.5984 | 799.7
288.15 K, x1 = 0.6471 | 810.83
288.15 K, x1 = 0.7077 | 825.2
288.15 K, x1 = 0.7463 | 834.68
288.15 K, x1 = 0.798 | 847.73
288.15 K, x1 = 0.8912 | 872.29
288.15 K, x1 = 0.9493 | 888.46
288.15 K, x1 = 1 | 903.31
298.15 K, x1 = 0.0485 | 686.88
298.15 K, x1 = 0.0876 | 693
298.15 K, x1 = 0.1389 | 701.34
298.15 K, x1 = 0.2122 | 713.65
298.15 K, x1 = 0.2586 | 721.76
298.15 K, x1 = 0.302 | 729.67
298.15 K, x1 = 0.3571 | 739.98
298.15 K, x1 = 0.4019 | 748.57
298.15 K, x1 = 0.4492 | 758.07
298.15 K, x1 = 0.5017 | 768.87
298.15 K, x1 = 0.5573 | 780.67
298.15 K, x1 = 0.5952 | 789.01
298.15 K, x1 = 0.6466 | 800.69
298.15 K, x1 = 0.7063 | 814.61
298.15 K, x1 = 0.7424 | 823.41
298.15 K, x1 = 0.7993 | 837.66
298.15 K, x1 = 0.8623 | 853.85
298.15 K, x1 = 0.9015 | 864.37
298.15 K, x1 = 0.9507 | 878.23
298.15 K, x1 = 1 | 892.31
308.15 K, x1 = 0.063 | 680.36
308.15 K, x1 = 0.117 | 688.78
308.15 K, x1 = 0.187 | 700.22
308.15 K, x1 = 0.3025 | 720.34
308.15 K, x1 = 0.417 | 741.86
308.15 K, x1 = 0.5047 | 759.48
308.15 K, x1 = 0.5651 | 772.28
308.15 K, x1 = 0.5933 | 778.47
308.15 K, x1 = 0.6532 | 791.9
308.15 K, x1 = 0.7045 | 803.77
308.15 K, x1 = 0.7487 | 814.31
308.15 K, x1 = 0.7648 | 818.37
308.15 K, x1 = 0.789 | 824.36
308.15 K, x1 = 0.8514 | 840.37
308.15 K, x1 = 0.8818 | 848.32
308.15 K, x1 = 0.9257 | 860.13
308.15 K, x1 = 0.9603 | 869.83
308.15 K, x1 = 1 | 881.19
318.15 K, x1 = 0.0768 | 673.72
318.15 K, x1 = 0.089 | 675.62
318.15 K, x1 = 0.1535 | 685.7
318.15 K, x1 = 0.2117 | 695.29
318.15 K, x1 = 0.2567 | 702.97
318.15 K, x1 = 0.305 | 711.44
318.15 K, x1 = 0.3544 | 720.36
318.15 K, x1 = 0.4042 | 729.76
318.15 K, x1 = 0.4351 | 735.72
318.15 K, x1 = 0.5011 | 748.89
318.15 K, x1 = 0.5487 | 758.83
318.15 K, x1 = 0.5962 | 768.97
318.15 K, x1 = 0.6971 | 791.66
318.15 K, x1 = 0.7469 | 803.4
318.15 K, x1 = 0.7973 | 815.75
318.15 K, x1 = 0.8454 | 827.9
318.15 K, x1 = 0.8948 | 840.81
318.15 K, x1 = 0.9513 | 856.25
318.15 K, x1 = 1 | 870.06
328.15 K, x1 = 0.044 | 659.99
328.15 K, x1 = 0.0921 | 667.12
328.15 K, x1 = 0.1388 | 674.29
328.15 K, x1 = 0.189 | 682.37
328.15 K, x1 = 0.2611 | 694.33
328.15 K, x1 = 0.3006 | 701.19
328.15 K, x1 = 0.4098 | 721.06
328.15 K, x1 = 0.4532 | 729.42
328.15 K, x1 = 0.5031 | 739.32
328.15 K, x1 = 0.5522 | 749.41
328.15 K, x1 = 0.5979 | 759.1
328.15 K, x1 = 0.6473 | 769.85
328.15 K, x1 = 0.706 | 783.28
328.15 K, x1 = 0.7456 | 792.62
328.15 K, x1 = 0.7926 | 803.93
328.15 K, x1 = 0.86 | 820.85
328.15 K, x1 = 0.9028 | 832.08
328.15 K, x1 = 0.9508 | 845.05
328.15 K, x1 = 1 | 858.8

Source: the NIST ThermoML archive (doi:10.1021/je300799f)
